Key:
[1] = Cytotoxicity against human Raji cells assessed as cell viability at 1000 molar ratio/TPA; assay type: cell-based; conditions: read-out: Activity
Raji [2] = test: Inhibition of 12-O-tetradecanoylphorbol 13-acetate-induced Epstein-Barr virus early antigen activation in human Raji cells assessed as EA induction at 10 mol ratio relative to TPA; values are per cent of control; conditions: human gammaherpesvirus 4
Raji [3] = test: Inhibition of 12-O-tetradecanoylphorbol 13-acetate-induced Epstein-Barr virus early antigen activation in human Raji cells assessed as EA induction at 500 mol ratio relative to TPA; values are per cent of control; conditions: human gammaherpesvirus 4
Raji [4] = test: Inhibition of 12-O-tetradecanoylphorbol 13-acetate-induced Epstein-Barr virus early antigen activation in human Raji cells assessed as EA induction at 100 mol ratio relative to TPA; values are per cent of control; conditions: human gammaherpesvirus 4
Raji [5] = test: Inhibition of 12-O-tetradecanoylphorbol 13-acetate-induced Epstein-Barr virus early antigen activation in human Raji cells assessed as EA induction at 1000 mol ratio relative to TPA; values are per cent of control; conditions: human gammaherpesvirus 4

CC(C)c1ccc2c(c1)CC[C@H]1[C@](C)(C(=O)O)CCC[C@]1(C)O2
viability at 1000 molar ratio/TPA [1]: 60%
level, % of control (Raji [2]): 96.9%
level, % of control (Raji [3]): 52.7%
level, % of control (Raji [4]): 85%
level, % of control (Raji [5]): 10.2%

CC(C)c1ccc2c(c1)CC[C@H]1[C@](C)(C(=O)O)CCC[C@]21C [DEHYDROABIETIC ACID]
viability at 1000 molar ratio/TPA [1]: 70%
level, % of control (Raji [2]): 95.2%
level, % of control (Raji [3]): 30.6%
level, % of control (Raji [4]): 75%
level, % of control (Raji [5]): 0%

CC(C)c1ccc2c(c1)C(=O)C[C@H]1C(C)(C)CCC[C@]21C
viability at 1000 molar ratio/TPA [1]: 70%
level, % of control (Raji [2]): 95%
level, % of control (Raji [3]): 30.2%
level, % of control (Raji [4]): 74.7%
level, % of control (Raji [5]): 0%

CC(=O)/C=C/[C@@H]1[C@@]2(C)CCCC(C)(C)[C@@H]2CC[C@@]1(C)O
viability at 1000 molar ratio/TPA [1]: 60%
level, % of control (Raji [2]): 89.3%
level, % of control (Raji [3]): 20.7%
level, % of control (Raji [4]): 68.4%
level, % of control (Raji [5]): 0%

COC(=O)[C@]1(C)CCC[C@]2(C)c3ccc(C(C)(C)O)cc3C(=O)C[C@@H]12
viability at 1000 molar ratio/TPA [1]: 70%
level, % of control (Raji [2]): 95%
level, % of control (Raji [3]): 28.1%
level, % of control (Raji [4]): 72.9%
level, % of control (Raji [5]): 0%

C=C1CCC[C@]2(C)c3ccc(C(C)C)cc3C(=O)C[C@@H]12
viability at 1000 molar ratio/TPA [1]: 70%
level, % of control (Raji [2]): 96.1%
level, % of control (Raji [3]): 31.6%
level, % of control (Raji [4]): 75.9%
level, % of control (Raji [5]): 0%

C=C[C@]1(C)CC[C@@H]2[C@@]3(C)CCCC(C)(C)[C@@H]3CC[C@@]2(C)O1
viability at 1000 molar ratio/TPA [1]: 70%
level, % of control (Raji [2]): 100%
level, % of control (Raji [3]): 35.9%
level, % of control (Raji [4]): 70.4%
level, % of control (Raji [5]): 4.3%

CC(C)c1cc2c(cc1O)[C@@]1(C)CCC[C@@](C)(C(=O)O)[C@@H]1CC2
viability at 1000 molar ratio/TPA [1]: 70%
level, % of control (Raji [2]): 95.8%
level, % of control (Raji [3]): 28%
level, % of control (Raji [4]): 66.4%
level, % of control (Raji [5]): 2.7%

C=C[C@]1(C)CC[C@@H]2[C@@]3(C)CC[C@@H](C)C(=C)[C@@H]3CC[C@@]2(C)O1
viability at 1000 molar ratio/TPA [1]: 70%
level, % of control (Raji [2]): 100%
level, % of control (Raji [3]): 38.8%
level, % of control (Raji [4]): 77.1%
level, % of control (Raji [5]): 5.1%

CC(C)[C@]12C=C3CC[C@H]4[C@](C)(C(=O)O)CCC[C@]4(C)[C@]3(CC1)OO2
viability at 1000 molar ratio/TPA [1]: 70%
level, % of control (Raji [2]): 90.5%
level, % of control (Raji [3]): 24.2%
level, % of control (Raji [4]): 63.7%
level, % of control (Raji [5]): 0%

CC1=C(/C=C/C(C)=C/C=C/C(C)=C/C=C/C=C(C)/C=C/C=C(C)/C=C/C2=C(C)CCCC2(C)C)C(C)(C)CCC1
level, % of control (Raji [2]): 100%
level, % of control (Raji [3]): 34%
level, % of control (Raji [4]): 82%
level, % of control (Raji [5]): 9%
